Six cell lines from the supplement of paper PMC10307832 can be followed below.

What all share (assay): relative viability (nuclei count vs DMSO), 5 days (fraction); higher = more cells survive
Compound in the assay “Tipifarnib + Palbociclib”: Cn1cncc1[C@@](N)(c1ccc(Cl)cc1)c1ccc2c(c1)c(-c1cccc(Cl)c1)cc(=O)n2C [Tipifarnib] + CC(=O)c1c(C)c2cnc(Nc3ccc(N4CCNCC4)cn3)nc2n(C2CCCC2)c1=O [Palbociclib] (partner 0.5 µM)
The gist of the method:
(§1)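 Relative viability is defined as nuclei in treated wells over nuclei in vehicle wells. Duplicate plates were run and medians reported. Lung cancer cell lines in 1536-well plates were dosed by pin tool one day after seeding, with one drug or with a fixed anchor-drug dose plus five library-drug doses (not always all listed) in √10 steps, and nuclei were counted after 5 days.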

Compound in the assay “Tipifarnib + Bortezomib”: Cn1cncc1[C@@](N)(c1ccc(Cl)cc1)c1ccc2c(c1)c(-c1cccc(Cl)c1)cc(=O)n2C [Tipifarnib] + CC(C)C[C@H](NC(=O)[C@H](Cc1ccccc1)NC(=O)c1cnccn1)B(O)O [Bortezomib] (partner 0.002 µM)
The gist of the method:
as §1

Compound in the assay “Tipifarnib + Alpelisib”: Cn1cncc1[C@@](N)(c1ccc(Cl)cc1)c1ccc2c(c1)c(-c1cccc(Cl)c1)cc(=O)n2C [Tipifarnib] + Cc1nc(NC(=O)N2CCC[C@H]2C(N)=O)sc1-c1ccnc(C(C)(C)C(F)(F)F)c1 [Alpelisib] (partner 2 µM)
The gist of the method: as §1

Compound in the assay “Tipifarnib + Dasatinib”: Cn1cncc1[C@@](N)(c1ccc(Cl)cc1)c1ccc2c(c1)c(-c1cccc(Cl)c1)cc(=O)n2C [Tipifarnib] + Cc1nc(Nc2ncc(C(=O)Nc3c(C)cccc3Cl)s2)cc(N2CCN(CCO)CC2)n1 [Dasatinib] (partner 0.075 µM)
The gist of the method: as §1

In the case of LOU-NH91, the relative viability was found to be 0.494 with Tipifarnib + Palbociclib (first compound 0.01 µM); 0.516 with Tipifarnib + Palbociclib (first compound 0.03162 µM); 0.592 with Tipifarnib + Palbociclib (first compound 0.1 µM); 0.541 with Tipifarnib + Palbociclib (first compound 0.3162 µM); 0.58 with Tipifarnib + Palbociclib (first compound 1 µM); 0.436 in the assay with Tipifarnib + Bortezomib (first compound 0.01 µM). Further, the relative viability with Tipifarnib + Bortezomib (first compound 0.03162 µM) turned out to be 0.42; with Tipifarnib + Bortezomib (first compound 0.1 µM) it was 0.558; in the assay with Tipifarnib + Bortezomib (first compound 0.3162 µM), 0.534; with Tipifarnib + Bortezomib (first compound 1 µM), 0.457; with Tipifarnib + Alpelisib (first compound 0.01 µM) it was 0.706; with Tipifarnib + Alpelisib (first compound 0.03162 µM), 0.702. The relative viability with Tipifarnib + Alpelisib (first compound 0.1 µM) was 0.644; with Tipifarnib + Alpelisib (first compound 0.3162 µM), 0.545; with Tipifarnib + Alpelisib (first compound 1 µM), 0.583; with Tipifarnib + Dasatinib (first compound 0.01 µM) it was 0.53; with Tipifarnib + Dasatinib (first compound 0.03162 µM), 0.505; in the assay with Tipifarnib + Dasatinib (first compound 0.1 µM), 0.507. The relative viability was determined as 0.451 in the assay with Tipifarnib + Dasatinib (first compound 0.3162 µM) and 0.338 in the assay with Tipifarnib + Dasatinib (first compound 1 µM).

NCI-H2347: the relative viability was 0.361 with Tipifarnib + Palbociclib (first compound 0.01 µM); 0.388 in the assay with Tipifarnib + Palbociclib (first compound 0.03162 µM); 0.398 in the assay with Tipifarnib + Palbociclib (first compound 0.1 µM); 0.381 in the assay with Tipifarnib + Palbociclib (first compound 0.3162 µM); 0.361 with Tipifarnib + Palbociclib (first compound 1 µM); 0.897 in the assay with Tipifarnib + Bortezomib (first compound 0.01 µM). The relative viability with Tipifarnib + Bortezomib (first compound 0.03162 µM) came to 0.469; in the assay with Tipifarnib + Bortezomib (first compound 0.1 µM), 0.751; with Tipifarnib + Bortezomib (first compound 0.3162 µM), 0.698; with Tipifarnib + Bortezomib (first compound 1 µM), 0.738; with Tipifarnib + Alpelisib (first compound 0.01 µM), 1.05; with Tipifarnib + Alpelisib (first compound 0.03162 µM) it was 0.798. Moreover, the relative viability with Tipifarnib + Alpelisib (first compound 0.1 µM) was 0.714; in the assay with Tipifarnib + Alpelisib (first compound 0.3162 µM) it was 0.689; in the assay with Tipifarnib + Alpelisib (first compound 1 µM), 0.674; with Tipifarnib + Dasatinib (first compound 0.01 µM), 0.278; in the assay with Tipifarnib + Dasatinib (first compound 0.03162 µM), 0.293; in the assay with Tipifarnib + Dasatinib (first compound 0.1 µM), 0.256. Besides, the relative viability with Tipifarnib + Dasatinib (first compound 0.3162 µM) amounted to 0.303; with Tipifarnib + Dasatinib (first compound 1 µM), 0.277.

On to NCI-H2126, for which the relative viability came out at 0.353 with Tipifarnib + Palbociclib (first compound 0.01 µM); 0.332 in the assay with Tipifarnib + Palbociclib (first compound 0.03162 µM); 0.345 in the assay with Tipifarnib + Palbociclib (first compound 0.1 µM); 0.35 with Tipifarnib + Palbociclib (first compound 0.3162 µM); 0.354 in the assay with Tipifarnib + Palbociclib (first compound 1 µM); 1.05 in the assay with Tipifarnib + Bortezomib (first compound 0.01 µM). Besides, the relative viability is 1.07 with Tipifarnib + Bortezomib (first compound 0.03162 µM); 1.13 in the assay with Tipifarnib + Bortezomib (first compound 0.1 µM); 1.05 in the assay with Tipifarnib + Bortezomib (first compound 0.3162 µM); 0.669 with Tipifarnib + Bortezomib (first compound 1 µM); 0.759 with Tipifarnib + Alpelisib (first compound 0.01 µM); 0.729 with Tipifarnib + Alpelisib (first compound 0.03162 µM). The relative viability with Tipifarnib + Alpelisib (first compound 0.1 µM) was found to be 0.799; with Tipifarnib + Alpelisib (first compound 0.3162 µM), 0.733; with Tipifarnib + Alpelisib (first compound 1 µM), 0.706; with Tipifarnib + Dasatinib (first compound 0.01 µM), 0.652; with Tipifarnib + Dasatinib (first compound 0.03162 µM) it was 0.673; with Tipifarnib + Dasatinib (first compound 0.1 µM), 0.648. The relative viability with Tipifarnib + Dasatinib (first compound 0.3162 µM) is 0.578; with Tipifarnib + Dasatinib (first compound 1 µM), 0.391.

For the cell line HCC-827, the relative viability turned out to be 0.455 with Tipifarnib + Palbociclib (first compound 0.01 µM); 0.495 with Tipifarnib + Palbociclib (first compound 0.03162 µM); 0.472 with Tipifarnib + Palbociclib (first compound 0.1 µM); 0.349 in the assay with Tipifarnib + Palbociclib (first compound 0.3162 µM); 0.439 with Tipifarnib + Palbociclib (first compound 1 µM); 0.975 in the assay with Tipifarnib + Bortezomib (first compound 0.01 µM). Also, the relative viability in the assay with Tipifarnib + Bortezomib (first compound 0.03162 µM) came to 0.955; with Tipifarnib + Bortezomib (first compound 0.1 µM), 0.858; in the assay with Tipifarnib + Bortezomib (first compound 0.3162 µM), 0.68; with Tipifarnib + Bortezomib (first compound 1 µM), 0.68; with Tipifarnib + Alpelisib (first compound 0.01 µM) it was 1.04; with Tipifarnib + Alpelisib (first compound 0.03162 µM), 1.03. The relative viability with Tipifarnib + Alpelisib (first compound 0.1 µM) was 0.767; in the assay with Tipifarnib + Alpelisib (first compound 0.3162 µM), 0.626; with Tipifarnib + Alpelisib (first compound 1 µM), 0.667; with Tipifarnib + Dasatinib (first compound 0.01 µM) it was 0.372; with Tipifarnib + Dasatinib (first compound 0.03162 µM), 0.363; in the assay with Tipifarnib + Dasatinib (first compound 0.1 µM) it was 0.446. Further, the relative viability is 0.403 with Tipifarnib + Dasatinib (first compound 0.3162 µM) and 0.431 in the assay with Tipifarnib + Dasatinib (first compound 1 µM).

Turning to NCI-H3122, the relative viability with Tipifarnib + Palbociclib (first compound 0.01 µM) turned out to be 0.193; with Tipifarnib + Palbociclib (first compound 0.03162 µM) it was 0.189; with Tipifarnib + Palbociclib (first compound 0.1 µM), 0.196; in the assay with Tipifarnib + Palbociclib (first compound 0.3162 µM), 0.179; with Tipifarnib + Palbociclib (first compound 1 µM), 0.14; with Tipifarnib + Bortezomib (first compound 0.01 µM), 0.967. Moreover, the relative viability worked out at 0.976 with Tipifarnib + Bortezomib (first compound 0.03162 µM); 0.986 in the assay with Tipifarnib + Bortezomib (first compound 0.1 µM); 0.833 with Tipifarnib + Bortezomib (first compound 0.3162 µM); 0.832 with Tipifarnib + Bortezomib (first compound 1 µM); 0.665 with Tipifarnib + Alpelisib (first compound 0.01 µM); 0.598 in the assay with Tipifarnib + Alpelisib (first compound 0.03162 µM). Besides, the relative viability with Tipifarnib + Alpelisib (first compound 0.1 µM) turned out to be 0.527; with Tipifarnib + Alpelisib (first compound 0.3162 µM) it was 0.402; with Tipifarnib + Alpelisib (first compound 1 µM), 0.401; with Tipifarnib + Dasatinib (first compound 0.01 µM), 0.63; with Tipifarnib + Dasatinib (first compound 0.03162 µM) it was 0.456; in the assay with Tipifarnib + Dasatinib (first compound 0.1 µM), 0.644. For the same cell line, the relative viability in the assay with Tipifarnib + Dasatinib (first compound 0.3162 µM) turned out to be 0.327; with Tipifarnib + Dasatinib (first compound 1 µM) it was 0.138.

Regarding HOP-62, the relative viability with Tipifarnib + Palbociclib (first compound 0.01 µM) stood at 0.425; in the assay with Tipifarnib + Palbociclib (first compound 0.03162 µM) it was 0.33; with Tipifarnib + Palbociclib (first compound 0.1 µM), 0.268; in the assay with Tipifarnib + Palbociclib (first compound 0.3162 µM), 0.188; with Tipifarnib + Palbociclib (first compound 1 µM), 0.191; in the assay with Tipifarnib + Bortezomib (first compound 0.01 µM), 1. In addition, the relative viability was found to be 0.188 with Tipifarnib + Bortezomib (first compound 0.03162 µM); 0.222 with Tipifarnib + Bortezomib (first compound 0.1 µM); 0.275 in the assay with Tipifarnib + Bortezomib (first compound 0.3162 µM); 0.281 with Tipifarnib + Bortezomib (first compound 1 µM); 1.31 in the assay with Tipifarnib + Alpelisib (first compound 0.01 µM); 0.824 with Tipifarnib + Alpelisib (first compound 0.03162 µM). Besides, the relative viability with Tipifarnib + Alpelisib (first compound 0.1 µM) came out at 0.377; in the assay with Tipifarnib + Alpelisib (first compound 0.3162 µM), 0.281; with Tipifarnib + Alpelisib (first compound 1 µM), 0.325; in the assay with Tipifarnib + Dasatinib (first compound 0.01 µM), 0.683; in the assay with Tipifarnib + Dasatinib (first compound 0.03162 µM), 0.392; with Tipifarnib + Dasatinib (first compound 0.1 µM), 0.37. The relative viability with Tipifarnib + Dasatinib (first compound 0.3162 µM) came out at 0.277; with Tipifarnib + Dasatinib (first compound 1 µM), 0.338.
